Measurements from article PMC6154745 (Oncotarget, 2018).
Marks after values point to notes of the source that are not given here.

Tests used:
[1] = system: spleen miRNAs; experiment: miRNA expression (microarray), Study 3, spleen; type: in vivo, ICR (CD-1) mice
Protocol: (§1) Each group was composed of 10 female mice.
(§2) The urine was collected for 8 h and pooled from the mice belonging to each experimental group in Study 3 by using metabolic cages during the day preceding euthanasia of mice. Immediately after sacrifice, a bronchoalveolar lavage (BAL) was performed and used for preparing BALF, and the blood was collected and used for preparing serum. BALF and blood serum were pooled within each experimental group. The organs reported in the general design of the studies were collected, as previously described. Immediately after collection, each organ or fluid was immersed in RNAlater and kept at -80°C for miRNA analysis. Portions of the organs used in Study 1 and Study 2 were stored at -80°C for evaluating DNA damage.
(§3) For evaluating the expression of pulmonary miRNAs we used the 7th generation miRCURY LNA™ microRNA Array (Exiqon), which contains 3,100 capture probes covering human, mouse and rat miRNAs. In particular, this array covers 1,135 mouse miRNAs, i.e. the 88.6% of the 1,281 mouse miRNAs listed in miRBase 19. Microarray analyses were carried out as previously described.
(§4) Treatment-related differences in body weights, in the frequency of MN NCE, and in the levels of pulmonary DNA adducts and 8-oxo-dGuo, all of them expressed as means ± SE within each group of mice, were evaluated for statistical significance by ANOVA followed by Student's t test for unpaired data. miRNA microarray data, after local background subtraction, log transformation, and normalization were analyzed by GeneSpring software (Agilent, Santa Clara, CA), and expression data were median centered by using the GeneSpring normalization option.

[2] = system: pulmonary miRNAs; experiment: Pulmonary miRNA expression (microarray), Study 1
Protocol: Ten mice per group (5 males and 5 females) were used. […] Twenty mice per group (10 males and 10 females) were used. […] Each group was composed of 10 female mice.
RNA was extracted from mouse organs (miRNeasy, Qiagen, Hilden, Germany) and body fluids (Exiqon's miRCURY™ RNA Isolation Kit – Biofluids (Exiqon, Vedbaek, Denmark) according to the manufacturers’ instructions. The quality of the RNA extracted was evaluated by spectrophotometric analyses using a fiber optic spectrophotometer (Nanodrop ND-1000).
For evaluating the expression of pulmonary miRNAs we used the 7th generation miRCURY LNA™ microRNA Array (Exiqon), which contains 3,100 capture probes covering human, mouse and rat miRNAs. In particular, this array covers 1,135 mouse miRNAs, i.e. the 88.6% of the 1,281 mouse miRNAs listed in miRBase 19. Microarray analyses were carried out as previously described [22].
Treatment-related differences in body weights, in the frequency of MN NCE, and in the levels of pulmonary DNA adducts and 8-oxo-dGuo, all of them expressed as means ± SE within each group of mice, were evaluated for statistical significance by ANOVA followed by Student's t test for unpaired data. miRNA microarray data, after local background subtraction, log transformation, and normalization were analyzed by GeneSpring software (Agilent, Santa Clara, CA), and expression data were median centered by using the GeneSpring normalization option. The statistical significance of the differences between experimental groups was evaluated by means of the GeneSpring ANOVA applied by using Bonferroni multiple testing correction. […] The overall variability of microarray data, as related to treatments, was evaluated by scatter-plot analysis (SPA), hierarchical cluster analysis (HCA), and principal component analysis (PCA).

[3] = system: lung miRNAs; experiment: miRNA expression (microarray), Study 3, lung; type: in vivo, ICR (CD-1) mice
Protocol: as §1, §2, §3, §4

[4] = system: liver DNA; experiment: Bulky DNA adducts by 32P postlabeling, Study 2, liver; type: in vivo, ICR (CD-1) mice; settings: for Bulky DNA adducts: Liver; for increase of DNA adduct levels over sham-exposed mice: liver
Protocol: as §1
DNA was extracted from tissue specimens (50 mg) collected individually from the lungs of 40 Swiss H mice used in Study 1 and from lungs, heart and liver of 80 ICR (CD-1) mice used in Study 2, as previously described. Bulky DNA adducts, after butanol enrichment, and 8-hydroxy-2’-deoxyguanosine (8-oxo-dGuo) were measured by ^32P postlabeling as previously described.

[5] = system: blood serum miRNAs; experiment: miRNA expression (microarray), Study 3, blood serum; type: in vivo, ICR (CD-1) mice
Protocol: as §1, §2, §3, §4

[6] = system: normochromatic erythrocytes; experiment: Systemic genotoxicity: frequency of MN NCE in peripheral blood; type: in vivo, Swiss H mice; set-up: unit not given here
[7] = system: urine miRNAs; experiment: miRNA expression (microarray), Study 3, urine; type: in vivo, ICR (CD-1) mice
Protocol: as §1, §2, §3, §4

[8] = system: stomach miRNAs; experiment: miRNA expression (microarray), Study 3, stomach; type: in vivo, ICR (CD-1) mice
Protocol: as §1, §2, §3, §4

[9] = system: blood serum miRNAs; experiment: Blood serum miRNAs (microarray), Study 1; type: in vivo, Swiss H mice
[10] = Body weight, Study 3; type: in vivo, ICR (CD-1) mice; settings: in g
Description: as §1
(§5) Strain H neonatal mice, used in Study 1, were born at the Animal Laboratory of the National Center of Oncology (Sofia, Bulgaria). The mice were housed in Makrolon™ cages on sawdust bedding and maintained on standard rodent chow (Kostinbrod, Bulgaria) and allowed drinking water ad libitum. Swiss ICR (CD-1) mice, either neonatal (Study 2) or two- month old (Study 3), were purchased from Harlan Laboratories (San Pietro al Natisone, Udine, Italy). The mice were housed in Makrolon™ cages on sawdust bedding and maintained on standard rodent chow (Teklad 9607, Harlan Laboratories) and tap water ad libitum. The animal room temperature was 23 ± 2°C, with a relative humidity of 55% and a 12 h day-night cycle. Housing and treatments of mice were in accordance with NIH, European (2010/63 UE Directive), and institutional guidelines. The issuance of the NIH Office of Laboratory Animal Welfare (OLAW) with the University of Genoa bears the identification number A5899-01 and is effective until February 28, 2021. The Institutional Animal Care and Use Committee (IACUC) protocol was approved by the Fox Chase Cancer Center Committee on April 13, 2015.
Celecoxib was supplied by the US National Cancer Institute (NCI) via MRIGlobal (Kansas City, MO).
(§6) In Study 1 and Study 2, feeding of the drug-containing diet started after weanling (about 4 weeks) and continued until the 10th week of life.
as §4

[11] = Body weight, Study 1; type: in vivo, Swiss H mice; settings: after 10 weeks
Description: as §5, §6, §4

[12] = system: BALF miRNAs; experiment: miRNA expression (microarray), Study 3, BALF; type: in vivo, ICR (CD-1) mice
Protocol: as §1, §2, §3, §4

[13] = celecoxib in MCS-exposed mice vs MCS
[14] = low dose (20 mg/kg diet) vs sham
[15] = females, MCS-exposed mice given celecoxib
[16] = males, MCS-exposed mice given celecoxib
[17] = urine, low dose (20 mg/kg diet) vs sham

With Cc1ccc(-c2cc(C(F)(F)F)nn2-c2ccc(S(N)(=O)=O)cc2)cc1 [Celecoxib, 4-[5-(4-methylphenyl)-3-(trifluoromethyl)-1H-pyrazol-1-yl] benzene-1-sulfonamide] the “upregulated/downregulated miRNAs” value ([1]; MCS-exposed mice) was 1/7, the miR-30c-2-5p downregulation ([1]; MCS-free mice) was 7 fold and the “upregulated/downregulated miRNAs” value ([1]; MCS-free mice) was 2/7. The “number of miRNAs modulated by celecoxib” value ([1]; high dose) was 17, the “number of pulmonary miRNAs significantly dysregulated” value [2, 13] was 11 and the “share of pulmonary miRNAs significantly dysregulated” value [2, 13] was 1.0%. For the same compound, the “number of pulmonary miRNAs downregulated” value ([2]; vs sham-exposed mice) was 2, the “number of pulmonary miRNAs upregulated” value ([2]; vs sham-exposed mice) was 19 and the miR-361 upregulation [3] was 8 fold. The “upregulated/downregulated miRNAs” value ([3]; MCS-exposed mice) was 0/1, the “upregulated/downregulated miRNAs” value ([3]; MCS-free mice) was 14/0 and the “number of miRNAs modulated by celecoxib” value ([3]; high dose) was 15. For the same compound, the “number of miRNAs modulated” value ([3]; low dose) was 3, the miR-296 upregulation [3, 14] was 2.4 fold and the miR-551b upregulation [3, 14] was 2.2 fold. The miR185 downregulation ([3]; low dose (20 mg/kg diet), compared to MCS-exposed mice) was 2.8 fold, the “Bulky DNA adducts” value ([4]; F) was 1.8 ± 0.08^c adducts/10^8 nucleotides and the “Bulky DNA adducts” value ([4]; M) was 1.6 ± 0.12^a adducts/10^8 nucleotides. The “Bulky DNA adducts” value ([4]; M + F) was 1.7 ± 0.08^a adducts/10^8 nucleotides, the “increase of DNA adduct levels over sham-exposed mice” value (from here on “increase of DNA adduct levels”) ([4]; MCS-exposed mice treated with celecoxib, females) was 1.5 fold and the “increase of DNA adduct levels” value ([4]; MCS-exposed mice treated with celecoxib, males) was 1.3 fold. For the same compound, the “increase of DNA adduct levels” value ([4]; MCS-exposed mice treated with celecoxib, mixed genders) was 1.4 fold, the “increase of DNA adduct levels” value ([4]; combined genders) was 1.4 fold and the “increase of DNA adduct levels” value ([4]; females) was 1.5 fold. For the same compound, the “increase of DNA adduct levels” value ([4]; males) was 1.3 fold, the “upregulated/downregulated miRNAs” value ([5]; blood serum, MCS-exposed mice) was 2/3 and the miR-1964-5p downregulation ([5]; blood serum, MCS-free mice) was 8 fold. The “upregulated/downregulated miRNAs” value ([5]; blood serum, MCS-free mice) was 2/11, the “number of miRNAs modulated by celecoxib” value ([5]; blood serum, high dose) was 18 and the “number of miRNAs modulated” value ([5]; blood serum, low dose) was 2. The miR30c-5p downregulation ([5]; blood serum, low dose (20 mg/kg diet) vs sham) was 2.9 fold, the miR-185 downregulation ([5]; blood serum, low dose (20 mg/kg diet), compared to MCS-exposed mice) was 2.1 fold and the “number of miRNAs modulated” value ([5]; blood, high dose) was 11. For the same compound, the “frequency of MN NCE” value ([6]; females, 4 months of age) was 0.8 ± 0.08, the “frequency of MN NCE” value [6, 15] was 1.2 ± 0.08 and the “frequency of MN NCE” value ([6]; males, 4 months of age) was 1.4 ± 0.12. The “frequency of MN NCE” value [6, 16] was 2.2 ± 0.15, the “number of miRNAs modulated” value ([7]; urine, high dose) was 3 and the “number of miRNAs modulated” value ([7]; urine, low dose) was 2. The miR-290 downregulation [7, 17] was 2.4 fold, the miR-1945b downregulation [7, 17] was 2.4 fold and the “upregulated/downregulated miRNAs” value ([7]; urines, MCS-free mice) was 0/3. For the same compound, the “number of miRNAs modulated by celecoxib” value ([7]; urines, high dose) was 3, the miR-125b downregulation ([8]; MCS-exposed mice) was 9 fold and the miR-802-3p upregulation ([8]; MCS-exposed mice) was 3 fold. The “upregulated/downregulated miRNAs” value ([8]; MCS-exposed mice) was 3/3, the miR-1964-5p downregulation ([8]; MCS-free mice) was 4 fold and the “upregulated/downregulated miRNAs” value ([8]; MCS-free mice) was 2/12. For the same compound, the “number of miRNAs modulated by celecoxib” value ([8]; high dose) was 20, the “number of blood miRNAs on which the effect of MCS was counteracted” value ([9]; MCS-exposed mice given celecoxib) was 7 and the “number of miRNAs significantly modulated in blood serum” value ([9]; vs sham-exposed mice, 2-fold variation and P < 0.05) was 18. The body weight ([10]; females, MCS-exposed, high dose celecoxib) was 26.7 ± 0.56, the body weight ([10]; females, MCS-exposed, low dose celecoxib) was 30.9 ± 1.24 and the body weight ([10]; females, smoke-free, high dose (1,600 mg/kg diet)) was 31.5 ± 0.98. The body weight ([10]; females, smoke-free, low dose (20 mg/kg diet)) was 32.6 ± 1.82, the body weight ([10]; males, smoke-free, high dose (1,600 mg/kg diet)) was 42.1 ± 0.61 and the body weight [11, 15] was 26.7 ± 0.56 g. For the same compound, the body weight ([11]; females) was 27.8 ± 0.80 g, the body weight [11, 16] was 34.6 ± 1.55 g and the body weight ([11]; males) was 37.2 ± 0.97 g. The miR-1964-5p downregulation ([12]; MCS-exposed mice) was 3 fold, the “upregulated/downregulated miRNAs” value ([12]; MCS-exposed mice) was 0/2 and the miR-1964-5p downregulation ([12]; MCS-free mice) was 6 fold. For the same compound, the “upregulated/downregulated miRNAs” value ([12]; MCS-free mice) was 2/3 and the “number of miRNAs modulated by celecoxib” value ([12]; high dose) was 7.
